According to patent publication US20240226048A1, “METHODS OF TREATMENT USING BEMPEDOIC ACID” (Esperion Therapeutics, Inc., priority 2023, published 2024):

Experiment: CLEAR OUTCOMES trial: adverse events and safety laboratory findings
Type: in vivo, human
Conditions: for Any muscle disorder, %: prespecified adverse event of special interest
Description: The CLEAR OUTCOMES trial was a randomized, placebo-controlled, double-blind trial that enrolled patients at 1250 sites in 32 countries. An independent Data Monitoring Committee reviewed safety and efficacy data during the trial. Patients 18 to 85 years of age were eligible for enrollment if they met either of two criteria for increased cardiovascular risk, a prior cardiovascular event (secondary prevention) or clinical features that placed them at high risk for a cardiovascular event (primary prevention). (Nicholls […], Bays H E, et al. Rationale and design of the CLEAR-outcomes trial: Evaluating the effect of bempedoic acid on cardiovascular events in patients with statin intolerance. Am Heart J. 2021 May; 235: 104-112) All patients provided written informed consent. Patients had to report statin intolerance due to an adverse effect that started or increased during statin therapy and resolved or improved after statin therapy was discontinued. Patients could be enrolled if they tolerated a very low average daily statin dose (e.g., an average daily dose of rosuvastatin <5 mg, atorvastatin <10 mg, simvastatin <10 mg, lovastatin <20 mg, pravastatin <40 mg, fluvastatin <40 mg, or pitavastatin <2 mg). Other lipid-lowering therapies were permitted, including ezetimibe, niacin, bile acid resins, fibrates, and/or proprotein convertase subtilisin kexin type 9 (PCSK9) inhibitors. Full inclusion and exclusion criteria are provided in Nicholls et al. (Am Heart J. 2021). Eligible patients entered a 4-week run-in period during which patients were treated with single-blind placebo. If patients were intolerant to placebo treatment or if adherence was <80% by tablet count, they were not eligible for randomization. […] Beginning 6 months after enrollment, the central laboratory notified the investigator if the patient's LDL-cholesterol level was ≥25% higher than baseline. These patients were counseled on healthy dietary guidelines and reminded to take all lipid-regulating medications. If repeat testing confirmed that LDL-cholesterol value met the threshold criteria, the provider could adjust the lipid-lowering treatment regimen per standard of care and local guidelines.

[1] = N = 7001, listed as bempedoic acid
[2] = at any visit, repeated and confirmed, N = 7001

In the case of CC(C)(CCCCCC(O)CCCCCC(C)(C)C(=O)O)C(=O)O [Bempedoic Acid, Bempedoic acid], the “Adverse event leading to drug discontinuation, %” value (180 mg oral daily, N = 7001) is reported as “(11.0) %”, the “Any treatment emergent adverse event, %” value (180 mg oral daily, N = 7001) is reported as “(86.3) %” and the “Serious treatment emergent adverse event, %” value (180 mg oral daily, N = 7001) is reported as “(25.4) %”. The “Adjudicated tendon rupture, %” value (N = 7001) was “(1.2) %”, the “Atrial fibrillation, %” value (N = 7001) was “(3.3) %” and the “Cholelithiasis, %” value (N = 7001) was “(2.2) %”. The “Discontinuation of treatment due to myalgia, %” value (N = 7001) was “(1.8) %”, the “Elevated hepatic enzymes, %” value (N = 7001) was “(4.5) %” and the “Gout, %” value (N = 7001) was “(3.1) %”. For the same molecule, the “Hyperuricemia, %” value (N = 7001) was “(10.9) %”, the “Hypoglycemia, %” value (N = 7001) was “(4.3) %” and the “Malignancies, %” value (N = 7001) was “(4.7) %”. For the same molecule, the “Metabolic acidosis, %” value (N = 7001) was “(0.2) %”, the “Myalgia, %” value (N = 7001) was “(5.6) %” and the “Neurocognitive disorders, %” value (N = 7001) was “(0.8) %”. For the same molecule, the “Renal impairment, %” value (N = 7001) was “(11.5) %”, the “Tendinopathies, %” value (N = 7001) was “(1.7) %” and the “Cholelithiasis, %” value [1] was 2.2%. The “Elevated hepatic enzymes, %” value [1] was 4.5%, the “Gout, %” value [1] was 3.1% and the “Hyperuricemia, %” value [1] was 10.9%. The “Renal impairment, %” value [1] was 11.5%, the “Change from baseline in creatinine levels” value (after 6 months, mean) was 0.05 mg/dL and the “Change from baseline in uric acid levels” value (after 6 months, mean) was 0.76 mg/dL. The “Change from baseline in glycated hemoglobin level (%)” value (after 12 months, not a prespecified safety measure) was 0.04%, the “Creatine kinase levels >5x ULN (repeated and confirmed), %” value (at any visit, N = 7001) was “(0.1) %” and the “Creatine kinase levels >5x ULN (single occurrence), %” value (at any visit, N = 7001) was “(0.6) %”. The “Alanine aminotransferase level >3 times ULN, %” value [2] was “(1.2) %”, the “Aspartate aminotransferase level >3 times ULN, %” value [2] was “(1.1) %” and the tolerability of treatment (discontinuation rates similar to placebo) was “well tolerated”. The “Worsening hyperglycemia, %” value (in patients with diabetes at baseline) was “(22.7) %”, the “Mean changes in creatinine and uric acid from baseline compared with placebo” value (in vivo) was “larger” and the “New onset diabetes in patients with normoglycemia at baseline, %” value (in vivo) was “(5.5) %”. For the same molecule, the “New onset diabetes in patients with pre-diabetes at baseline, %” value (in vivo) was “(19.5) %”, the “New onset diabetes in patients without diabetes at baseline, %” value (in vivo) was “(16.1) %” and the “Rates of liver transaminase elevations >3×ULN compared with placebo” value (in vivo) was “more frequent”. For the same molecule, the “Any muscle disorder, %” value (N = 7001) was “(15.0) %”, the “Any muscle disorder, %” value [1] was 15.0% and the “between group differences in overall rates of adverse events, serious adverse events, or adverse events leading to drug discontinuation” value (vs placebo) was “not clinically meaningful between group differences”. For the same molecule, the “other prespecified adverse events of special interest (diabetes, hypoglycemia, metabolic acidosis, neurocognitive disorders, atrial fibrillation, tendinopathies, malignancies)” value (vs placebo) was “no differences”.
